# From ChEMBL document CHEMBL1201862, “PubChem BioAssay data set” (2004)
#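 The compound was tested at five concentrations on cells cultured in 96-well plates, with a 48-hour exposure period. GI50: concentration for 50% inhibition of growth.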 The source made the active and inactive calls. Cut-off read from the data, not from the text of the source: active = GI50 up to about 1.1 µM and inactive = higher.
# Columns and labels:
# Assay in all cases: inhibition of tumour cell growth, NCI panel, 48 h
# M19-MEL = test system: M19-MEL
# A498 = test system: A498
# U-251 = test system: U-251
# UO-31 = test system: UO-31
# NCI-H23 = test system: NCI-H23
# TK-10 = test system: TK-10
# CAKI-1 = test system: CAKI-1
# HCT-15 = test system: HCT-15
# HOP-92 = test system: HOP-92
# NCI-H226 = test system: NCI-H226
# DMS-273 = test system: DMS-273
# SNB-75 = test system: SNB-75
# LXFL 529 = test system: LXFL 529
# HCC 2998 = test system: HCC 2998
# SK-MEL-2 = test system: SK-MEL-2
# DLD-1 = test system: DLD-1
# MDA-N = test system: MDA-N
# BT-549 = test system: BT-549
# Hs-578T = test system: Hs-578T
# PC-3 = test system: PC-3
SMILES,GI50 (M19-MEL),GI50 (A498),GI50 (U-251),GI50 (UO-31),GI50 (NCI-H23),GI50 (TK-10),GI50 (CAKI-1),GI50 (HCT-15),GI50 (HOP-92),GI50 (NCI-H226),GI50 (DMS-273),GI50 (SNB-75),GI50 (LXFL 529),GI50 (HCC 2998),GI50 (SK-MEL-2),GI50 (DLD-1),GI50 (MDA-N),GI50 (BT-549),GI50 (Hs-578T),GI50 (PC-3)
O=C(O)C1CCC(=O)N1C(=O)COc1cc(Cl)c(Cl)cc1Cl (stereo not given),> 100 µM (inactive),> 100 µM (inactive),> 100 µM (inactive),> 100 µM (inactive),> 100 µM (inactive),> 100 µM (inactive),> 100 µM (inactive),> 100 µM,82 µM (inactive),> 100 µM (inactive),> 100 µM (inactive),40.6 µM (inactive),> 100 µM (inactive),,,,,,,
CC1=CC[C@H](C)C(C)(C)C1/C=C/C(C)=C/CC[C@@]1(CO)[C@H](CCCO)/C(=C(/C)C=O)CC[C@]1(C)O (stereo not given in full),17.2 µM (inactive),,2.86 µM (inactive),8.45 µM (inactive),10.2 µM (inactive),5.5 µM (inactive),3.61 µM (inactive),7.64 µM,< 0.01 µM (active),1.9 µM (inactive),2.2 µM (inactive),,7.62 µM (inactive),2.31 µM (inactive),15.8 µM (inactive),3.53 µM (inactive),,,,
N#Cc1ccccc1NC(=O)C(=O)C(C(=O)c1ccccc1F)C1OC(=O)c2ccccc21 (stereo not given),29.7 µM (inactive),> 100 µM (inactive),15 µM (inactive),43.8 µM (inactive),40.4 µM (inactive),> 100 µM (inactive),64.4 µM (inactive),30.1 µM,> 100 µM (inactive),18.4 µM (inactive),30.8 µM (inactive),38.4 µM (inactive),31 µM (inactive),19.9 µM (inactive),24.1 µM (inactive),46.8 µM (inactive),,,,
CCOC(=O)C(OP(=O)(OCC)OCC)C(F)(F)F (stereo not given),,> 100 µM (inactive),> 100 µM (inactive),> 100 µM (inactive),> 100 µM (inactive),> 100 µM (inactive),,> 100 µM,,> 100 µM (inactive),,> 100 µM (inactive),,> 100 µM (inactive),> 100 µM (inactive),,> 100 µM (inactive),> 100 µM (inactive),> 100 µM (inactive),
Clc1ccccc1/C=C/c1cscn1,> 100 µM (inactive),> 100 µM (inactive),> 100 µM (inactive),88.1 µM (inactive),> 100 µM (inactive),> 100 µM (inactive),,> 100 µM,,,,> 100 µM (inactive),> 100 µM (inactive),> 100 µM (inactive),> 100 µM (inactive),> 100 µM (inactive),,,,
Cc1ccc(NC(=O)S(N)(c2ccc(C)cc2)[N+](=O)[O-])cc1 (stereo not given),,> 100 µM (inactive),> 100 µM (inactive),75 µM (inactive),> 100 µM (inactive),> 100 µM (inactive),> 100 µM (inactive),> 100 µM,> 100 µM (inactive),> 100 µM (inactive),,> 100 µM (inactive),,> 100 µM (inactive),> 100 µM (inactive),,> 100 µM (inactive),> 100 µM (inactive),> 100 µM (inactive),> 100 µM (inactive)
Cc1cccc(C(O)c2cccnc2)c1O (stereo not given),,,> 100 µM (inactive),> 100 µM (inactive),> 100 µM (inactive),> 100 µM (inactive),> 100 µM (inactive),> 100 µM,,> 100 µM (inactive),,> 100 µM (inactive),,44.2 µM (inactive),,,> 100 µM (inactive),> 100 µM (inactive),> 100 µM (inactive),> 100 µM (inactive)
O=C(c1ccccc1)C1C(c2ccccc2)N1S(=O)(=O)c1ccccc1 (stereo not given),,,> 100 µM (inactive),> 100 µM (inactive),> 100 µM (inactive),> 100 µM (inactive),> 100 µM (inactive),> 100 µM,,> 100 µM (inactive),,> 100 µM (inactive),,> 100 µM (inactive),> 100 µM (inactive),,> 100 µM (inactive),> 100 µM (inactive),> 100 µM (inactive),> 100 µM (inactive)
O=c1c(-c2ccccc2)c(SCCN2CCCCCC2)n(-c2ccccc2)c(=S)n1-c1ccccc1,,19.7 µM (inactive),,,68.9 µM (inactive),48.4 µM (inactive),22.9 µM (inactive),51.3 µM,15.2 µM (inactive),94.8 µM (inactive),,> 100 µM (inactive),,3.52 µM (inactive),,,,> 100 µM (inactive),39.8 µM (inactive),
CC(C)=CCC(OC(=O)C=C(C)C)c1cc(O)c2c(c1O)C(=O)C=CC2=O (stereo not given),0.621 µM (active),2.62 µM (inactive),3.08 µM (inactive),3.3 µM (inactive),,,0.64 µM (active),0.398 µM,0.469 µM (active),2.97 µM (inactive),1.98 µM (inactive),4.98 µM (inactive),,2.4 µM (inactive),2.01 µM (inactive),0.279 µM (active),,,,
Brc1ccccc1-c1ncc(-c2ccccc2)o1,,23 µM (inactive),17 µM (inactive),43.7 µM (inactive),29.4 µM (inactive),47.2 µM (inactive),32.1 µM (inactive),7.36 µM,17.8 µM (inactive),,,20.6 µM (inactive),,30 µM (inactive),27.3 µM (inactive),,31 µM (inactive),29.2 µM (inactive),10.3 µM (inactive),34.2 µM (inactive)
